Assay results as given in PubChem BioAssay AID1963847 (Molecular Pharmacology Branch, DTP, NCI, 2024).

System: 415267-285-R-J2-PDC complex spheroid viability
Experiment: Anticancer human tumor 415267-285-R-J2-PDC patient-derived breast carcinoma cell line growth inhibition [POLQ]
Conditions: for IC50: curve of first compound; for viability, T/C: stronger effect = lower value
How it was run: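 Growth inhibition in 3D: complex spheroids (tumor PDC, HUVEC, MSC) treated with POLQ inhibitor combinations; where Cmax unknown, highest tested concentration 10 microM, except SN-38 at 1 microM.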

[1] = second compound 0.0316 µM, first compound 0.0316 µM
[2] = second compound 0.0316 µM, first compound 0.1 µM
[3] = second compound 0.0316 µM, first compound 0.316 µM
[4] = second compound 0.0316 µM, first compound 1 µM
[5] = second compound 0.0316 µM, first compound 3.16 µM
[6] = second compound 0.0316 µM, first compound 10 µM
[7] = second compound 0.1 µM, first compound 0.0316 µM
[8] = second compound 0.1 µM, first compound 0.1 µM
[9] = second compound 0.1 µM, first compound 0.316 µM
[10] = second compound 0.1 µM, first compound 1 µM
[11] = second compound 0.1 µM, first compound 3.16 µM
[12] = second compound 0.1 µM, first compound 10 µM
[13] = second compound 0.316 µM, first compound 0.0316 µM
[14] = second compound 0.316 µM, first compound 0.1 µM
[15] = second compound 0.316 µM, first compound 0.316 µM
[16] = second compound 0.316 µM, first compound 1 µM
[17] = second compound 0.316 µM, first compound 3.16 µM
[18] = second compound 0.316 µM, first compound 10 µM
[19] = second compound 1 µM, first compound 0.0316 µM
[20] = second compound 1 µM, first compound 0.1 µM
[21] = second compound 1 µM, first compound 0.316 µM
[22] = second compound 1 µM, first compound 1 µM
[23] = second compound 1 µM, first compound 3.16 µM
[24] = second compound 1 µM, first compound 10 µM
[25] = second compound 3.16 µM, first compound 0.0316 µM
[26] = second compound 3.16 µM, first compound 0.1 µM
[27] = second compound 3.16 µM, first compound 0.316 µM
[28] = second compound 3.16 µM, first compound 1 µM
[29] = second compound 3.16 µM, first compound 3.16 µM
[30] = second compound 3.16 µM, first compound 10 µM
[31] = second compound 10 µM, first compound 0.0316 µM
[32] = second compound 10 µM, first compound 0.1 µM
[33] = second compound 10 µM, first compound 0.316 µM
[34] = second compound 10 µM, first compound 1 µM
[35] = second compound 10 µM, first compound 3.16 µM
[36] = second compound 10 µM, first compound 10 µM
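Also: spheroids exposed to compounds for one week before readout.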
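For viability, T/C in this document: luminescence used as stand-in measure of viable cells; 100% = DMSO vehicle control viability.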

## C#Cc1c(F)ccc2cc(O)cc(-c3ncc4c(N5CC6CCC(C5)N6)nc(OCC56CCCN5CC(F)C6)nc4c3F)c12 (stereo unspecified) + COC1C(OC(N)=O)C(O)C(Oc2ccc3c(O)c(NC(=O)c4ccc(O)c(CC=C(C)C)c4)c(=O)oc3c2C)OC1(C)C
Second compound 0.0316 µM
  IC50: > 10 µM
Second compound 0.1 µM
  IC50: > 10 µM
Second compound 0.316 µM
  IC50: > 10 µM
Second compound 1 µM
  IC50: > 10 µM
Second compound 3.16 µM
  IC50: > 10 µM
Second compound 10 µM
  IC50: > 10 µM
[1]
  viability, T/C: 101%
[2]
  viability, T/C: 95.3%
[3]
  viability, T/C: 103%
[4]
  viability, T/C: 95.4%
[5]
  viability, T/C: 97.7%
[6]
  viability, T/C: 101%
[7]
  viability, T/C: 97.6%
[8]
  viability, T/C: 91.9%
[9]
  viability, T/C: 102%
[10]
  viability, T/C: 103%
[11]
  viability, T/C: 101%
[12]
  viability, T/C: 110%
[13]
  viability, T/C: 97.7%
[14]
  viability, T/C: 103%
[15]
  viability, T/C: 104%
[16]
  viability, T/C: 95.3%
[17]
  viability, T/C: 99.3%
[18]
  viability, T/C: 100%
[19]
  viability, T/C: 84.9%
[20]
  viability, T/C: 92%
[21]
  viability, T/C: 91.2%
[22]
  viability, T/C: 104%
[23]
  viability, T/C: 102%
[24]
  viability, T/C: 96.7%
[25]
  viability, T/C: 100%
[26]
  viability, T/C: 111%
[27]
  viability, T/C: 92.1%
[28]
  viability, T/C: 111%
[29]
  viability, T/C: 94.5%
[30]
  viability, T/C: 91.4%
[31]
  viability, T/C: 95.3%
[32]
  viability, T/C: 105%
[33]
  viability, T/C: 98.4%
[34]
  viability, T/C: 98%
[35]
  viability, T/C: 91.8%
[36]
  viability, T/C: 103%

## C=CC(=O)N1CCN(c2nc(=O)n(-c3c(C)ccnc3C(C)C)c3nc(-c4c(O)cccc4F)c(F)cc23)C(C)C1 (stereo unspecified) + COC1C(OC(N)=O)C(O)C(Oc2ccc3c(O)c(NC(=O)c4ccc(O)c(CC=C(C)C)c4)c(=O)oc3c2C)OC1(C)C
Second compound 0.0316 µM
  IC50: > 10 µM
Second compound 0.1 µM
  IC50: > 10 µM
Second compound 0.316 µM
  IC50: > 10 µM
Second compound 1 µM
  IC50: > 10 µM
Second compound 3.16 µM
  IC50: > 10 µM
Second compound 10 µM
  IC50: > 10 µM
[1]
  viability, T/C: 103%
[2]
  viability, T/C: 93.4%
[3]
  viability, T/C: 105%
[4]
  viability, T/C: 92.6%
[5]
  viability, T/C: 112%
[6]
  viability, T/C: 92.2%
[7]
  viability, T/C: 85.4%
[8]
  viability, T/C: 97.5%
[9]
  viability, T/C: 98.5%
[10]
  viability, T/C: 93%
[11]
  viability, T/C: 108%
[12]
  viability, T/C: 103%
[13]
  viability, T/C: 103%
[14]
  viability, T/C: 89.8%
[15]
  viability, T/C: 82.8%
[16]
  viability, T/C: 107%
[17]
  viability, T/C: 112%
[18]
  viability, T/C: 93%
[19]
  viability, T/C: 98.6%
[20]
  viability, T/C: 94.5%
[21]
  viability, T/C: 93.9%
[22]
  viability, T/C: 97%
[23]
  viability, T/C: 97.5%
[24]
  viability, T/C: 98.2%
[25]
  viability, T/C: 101%
[26]
  viability, T/C: 102%
[27]
  viability, T/C: 97.2%
[28]
  viability, T/C: 101%
[29]
  viability, T/C: 101%
[30]
  viability, T/C: 95.9%
[31]
  viability, T/C: 95.1%
[32]
  viability, T/C: 95.8%
[33]
  viability, T/C: 112%
[34]
  viability, T/C: 109%
[35]
  viability, T/C: 90.6%
[36]
  viability, T/C: 86.9%

## CC1COCCN1c1cc(C2(O)CC3CCC(C2)O3)c2cnn(-c3ccn[nH]3)c2n1 (stereo unspecified) + COC1C(OC(N)=O)C(O)C(Oc2ccc3c(O)c(NC(=O)c4ccc(O)c(CC=C(C)C)c4)c(=O)oc3c2C)OC1(C)C
Second compound 0.0316 µM
  IC50: < 0.0316 µM
Second compound 0.1 µM
  IC50: < 0.0316 µM
Second compound 0.316 µM
  IC50: < 0.0316 µM
Second compound 1 µM
  IC50: < 0.0316 µM
Second compound 3.16 µM
  IC50: < 0.0316 µM
Second compound 10 µM
  IC50: < 0.0316 µM
[1]
  viability, T/C: 17.2%
[2]
  viability, T/C: 6.83%
[3]
  viability, T/C: 8.23%
[4]
  viability, T/C: 5.44%
[5]
  viability, T/C: 4.27%
[6]
  viability, T/C: 4.51%
[7]
  viability, T/C: 17.1%
[8]
  viability, T/C: 6.51%
[9]
  viability, T/C: 4.34%
[10]
  viability, T/C: 4.52%
[11]
  viability, T/C: 3.9%
[12]
  viability, T/C: 4.57%
[13]
  viability, T/C: 22.7%
[14]
  viability, T/C: 9.96%
[15]
  viability, T/C: 4.64%
[16]
  viability, T/C: 3.57%
[17]
  viability, T/C: 5.27%
[18]
  viability, T/C: 4%
[19]
  viability, T/C: 27.2%
[20]
  viability, T/C: 6.76%
[21]
  viability, T/C: 4.22%
[22]
  viability, T/C: 4.87%
[23]
  viability, T/C: 4.41%
[24]
  viability, T/C: 3.65%
[25]
  viability, T/C: 21%
[26]
  viability, T/C: 8.52%
[27]
  viability, T/C: 4.99%
[28]
  viability, T/C: 4.02%
[29]
  viability, T/C: 4.45%
[30]
  viability, T/C: 4.43%
[31]
  viability, T/C: 29.5%
[32]
  viability, T/C: 7.77%
[33]
  viability, T/C: 5.61%
[34]
  viability, T/C: 5.07%
[35]
  viability, T/C: 4.2%
[36]
  viability, T/C: 4.18%
